Test results taken from ChEMBL document CHEMBL1250513, “(R,S)-anti-1-amino-2-[18F]fluorocyclopentyl-1-carboxylic acid: synthesis from racemic 2-benzyloxycyclopentanone and biological evaluation for brain tumor imaging with positron emission tomography” (J Med Chem, 2010).

Tests used:
Spleen [1] = assay: Biodistribution in rat 9L tumor bearing fisher rat spleen at 40 to 50 uCi, iv after 15 mins; type: ADME, organism-based; conditions: in vivo, 0.25 h
[2] = Ratio of drug uptake in tumor to brain in rat 9L tumor bearing fisher rat […] at 40 to 50 uCi, iv after 120 mins; type: ADME, organism-based; conditions: in vivo, 2 h
Bone [3] = assay: Biodistribution in rat 9L tumor bearing fisher rat bone at 40 to 50 uCi, iv after 120 mins; type: ADME, organism-based, Bone element; conditions: in vivo, 2 h
Muscle tissue [4] = assay: Biodistribution in rat 9L tumor bearing fisher rat muscle at 40 to 50 uCi, iv after 30 mins; type: ADME, organism-based; conditions: in vivo, 0.5 h
Brain [5] = assay: Biodistribution in rat 9L tumor bearing fisher rat brain at 40 to 50 uCi, iv after 30 mins; type: ADME, organism-based; conditions: in vivo, 0.5 h
Pancreas [6] = assay: Biodistribution in rat 9L tumor bearing fisher rat pancreas at 40 to 50 uCi, iv after 30 mins; type: ADME, organism-based; conditions: in vivo, 0.5 h
[7] = Ratio of drug uptake in tumor to brain in rat 9L tumor bearing fisher rat […] at 40 to 50 uCi, iv after 60 mins; type: ADME, organism-based; conditions: in vivo, 1 h
[8] = Biodistribution in rat 9L tumor bearing fisher rat tumor at 40 to 50 uCi, iv after 60 mins; type: ADME, organism-based, Neoplasm; conditions: in vivo, 1 h
[9] = Ratio of drug uptake in tumor to brain in rat 9L tumor bearing fisher rat […] at 40 to 50 uCi, iv after 15 mins; type: ADME, organism-based; conditions: in vivo, 0.25 h
Heart [10] = assay: Biodistribution in rat 9L tumor bearing fisher rat heart at 40 to 50 uCi, iv after 30 mins; type: ADME, organism-based; conditions: in vivo, 0.5 h
Kidney [11] = assay: Biodistribution in rat 9L tumor bearing fisher rat kidney at 40 to 50 uCi, iv after 120 mins; type: ADME, organism-based; conditions: in vivo, 2 h
Kidney [12] = assay: Biodistribution in rat 9L tumor bearing fisher rat kidney at 40 to 50 uCi, iv after 60 mins; type: ADME, organism-based; conditions: in vivo, 1 h
Heart [13] = assay: Biodistribution in rat 9L tumor bearing fisher rat heart at 40 to 50 uCi, iv after 120 mins; type: ADME, organism-based; conditions: in vivo, 2 h
Muscle tissue [14] = assay: Biodistribution in rat 9L tumor bearing fisher rat muscle at 40 to 50 uCi, iv after 60 mins; type: ADME, organism-based; conditions: in vivo, 1 h
Brain [15] = assay: Biodistribution in rat 9L tumor bearing fisher rat brain at 40 to 50 uCi, iv after 120 mins; type: ADME, organism-based; conditions: in vivo, 2 h
[16] = Biodistribution in rat 9L tumor bearing fisher rat tumor at 40 to 50 uCi, iv after 15 mins; type: ADME, organism-based, Neoplasm; conditions: in vivo, 0.25 h
Heart [17] = assay: Biodistribution in rat 9L tumor bearing fisher rat heart at 40 to 50 uCi, iv after 60 mins; type: ADME, organism-based; conditions: in vivo, 1 h
Testes [18] = assay: Biodistribution in rat 9L tumor bearing fisher rat testes at 40 to 50 uCi, iv after 60 mins; type: ADME, organism-based, Testis; conditions: in vivo, 1 h
Pancreas [19] = assay: Biodistribution in rat 9L tumor bearing fisher rat pancreas at 40 to 50 uCi, iv after 15 mins; type: ADME, organism-based; conditions: in vivo, 0.25 h
Blood [20] = assay: Biodistribution in rat 9L tumor bearing fisher rat blood at 40 to 50 uCi, iv after 120 mins; type: ADME, organism-based; conditions: in vivo, 2 h
Bone [21] = assay: Biodistribution in rat 9L tumor bearing fisher rat bone at 40 to 50 uCi, iv after 30 mins; type: ADME, organism-based, Bone element; conditions: in vivo, 0.5 h
[22] = Biodistribution in rat 9L tumor bearing fisher rat tumor at 40 to 50 uCi, iv after 120 mins; type: ADME, organism-based, Neoplasm; conditions: in vivo, 2 h
Liver [23] = assay: Biodistribution in rat 9L tumor bearing fisher rat liver at 40 to 50 uCi, iv after 30 mins; type: ADME, organism-based; conditions: in vivo, 0.5 h
Liver [24] = assay: Biodistribution in rat 9L tumor bearing fisher rat liver at 40 to 50 uCi, iv after 15 mins; type: ADME, organism-based; conditions: in vivo, 0.25 h
Pancreas [25] = assay: Biodistribution in rat 9L tumor bearing fisher rat pancreas at 40 to 50 uCi, iv after 60 mins; type: ADME, organism-based; conditions: in vivo, 1 h
Kidney [26] = assay: Biodistribution in rat 9L tumor bearing fisher rat kidney at 40 to 50 uCi, iv after 15 mins; type: ADME, organism-based; conditions: in vivo, 0.25 h
Spleen [27] = assay: Biodistribution in rat 9L tumor bearing fisher rat spleen at 40 to 50 uCi, iv after 60 mins; type: ADME, organism-based; conditions: in vivo, 1 h
Liver [28] = assay: Biodistribution in rat 9L tumor bearing fisher rat liver at 40 to 50 uCi, iv after 120 mins; type: ADME, organism-based; conditions: in vivo, 2 h
Blood [29] = assay: Biodistribution in rat 9L tumor bearing fisher rat blood at 40 to 50 uCi, iv after 15 mins; type: ADME, organism-based; conditions: in vivo, 0.25 h
Lung [30] = assay: Biodistribution in rat 9L tumor bearing fisher rat lung at 40 to 50 uCi, iv after 60 mins; type: ADME, organism-based; conditions: in vivo, 1 h
Bone [31] = assay: Biodistribution in rat 9L tumor bearing fisher rat bone at 40 to 50 uCi, iv after 15 mins; type: ADME, organism-based, Bone element; conditions: in vivo, 0.25 h
Lung [32] = assay: Biodistribution in rat 9L tumor bearing fisher rat lung at 40 to 50 uCi, iv after 30 mins; type: ADME, organism-based; conditions: in vivo, 0.5 h
Lung [33] = assay: Biodistribution in rat 9L tumor bearing fisher rat lung at 40 to 50 uCi, iv after 120 mins; type: ADME, organism-based; conditions: in vivo, 2 h
Testes [34] = assay: Biodistribution in rat 9L tumor bearing fisher rat testes at 40 to 50 uCi, iv after 15 mins; type: ADME, organism-based, Testis; conditions: in vivo, 0.25 h
Muscle tissue [35] = assay: Biodistribution in rat 9L tumor bearing fisher rat muscle at 40 to 50 uCi, iv after 15 mins; type: ADME, organism-based; conditions: in vivo, 0.25 h
Muscle tissue [36] = assay: Biodistribution in rat 9L tumor bearing fisher rat muscle at 40 to 50 uCi, iv after 120 mins; type: ADME, organism-based; conditions: in vivo, 2 h
Heart [37] = assay: Biodistribution in rat 9L tumor bearing fisher rat heart at 40 to 50 uCi, iv after 15 mins; type: ADME, organism-based; conditions: in vivo, 0.25 h
Kidney [38] = assay: Biodistribution in rat 9L tumor bearing fisher rat kidney at 40 to 50 uCi, iv after 30 mins; type: ADME, organism-based; conditions: in vivo, 0.5 h
Spleen [39] = assay: Biodistribution in rat 9L tumor bearing fisher rat spleen at 40 to 50 uCi, iv after 120 mins; type: ADME, organism-based; conditions: in vivo, 2 h
[40] = Biodistribution in rat 9L tumor bearing fisher rat tumor at 40 to 50 uCi, iv after 30 mins; type: ADME, organism-based, Neoplasm; conditions: in vivo, 0.5 h
Bone [41] = assay: Biodistribution in rat 9L tumor bearing fisher rat bone at 40 to 50 uCi, iv after 60 mins; type: ADME, organism-based, Bone element; conditions: in vivo, 1 h
[42] = Ratio of drug uptake in tumor to brain in rat 9L tumor bearing fisher rat […] at 40 to 50 uCi, iv after 30 mins; type: ADME, organism-based; conditions: in vivo, 0.5 h
Lung [43] = assay: Biodistribution in rat 9L tumor bearing fisher rat lung at 40 to 50 uCi, iv after 15 mins; type: ADME, organism-based; conditions: in vivo, 0.25 h
Brain [44] = assay: Biodistribution in rat 9L tumor bearing fisher rat brain at 40 to 50 uCi, iv after 60 mins; type: ADME, organism-based; conditions: in vivo, 1 h
Liver [45] = assay: Biodistribution in rat 9L tumor bearing fisher rat liver at 40 to 50 uCi, iv after 60 mins; type: ADME, organism-based; conditions: in vivo, 1 h
Spleen [46] = assay: Biodistribution in rat 9L tumor bearing fisher rat spleen at 40 to 50 uCi, iv after 30 mins; type: ADME, organism-based; conditions: in vivo, 0.5 h
Blood [47] = assay: Biodistribution in rat 9L tumor bearing fisher rat blood at 40 to 50 uCi, iv after 60 mins; type: ADME, organism-based; conditions: in vivo, 1 h
Brain [48] = assay: Biodistribution in rat 9L tumor bearing fisher rat brain at 40 to 50 uCi, iv after 15 mins; type: ADME, organism-based; conditions: in vivo, 0.25 h
Testes [49] = assay: Biodistribution in rat 9L tumor bearing fisher rat testes at 40 to 50 uCi, iv after 30 mins; type: ADME, organism-based, Testis; conditions: in vivo, 0.5 h
Testes [50] = assay: Biodistribution in rat 9L tumor bearing fisher rat testes at 40 to 50 uCi, iv after 120 mins; type: ADME, organism-based, Testis; conditions: in vivo, 2 h
Blood [51] = assay: Biodistribution in rat 9L tumor bearing fisher rat blood at 40 to 50 uCi, iv after 30 mins; type: ADME, organism-based; conditions: in vivo, 0.5 h
Pancreas [52] = assay: Biodistribution in rat 9L tumor bearing fisher rat pancreas at 40 to 50 uCi, iv after 120 mins; type: ADME, organism-based; conditions: in vivo, 2 h

Drug uptake (Spleen [1]): 0.64 % ID/g
Ratio [2]: 10
Drug uptake (Bone [3]): 0.13 % ID/g
Drug uptake (Muscle tissue [4]): 0.28 % ID/g
Drug uptake (Brain [5]): 0.13 % ID/g
Drug uptake (Pancreas [6]): 2.91 % ID/g
Ratio [7]: 12
Drug uptake [8]: 1.24 % ID/g
Ratio [9]: 5
Drug uptake (Heart [10]): 0.44 % ID/g
Drug uptake (Kidney [11]): 0.89 % ID/g
Drug uptake (Kidney [12]): 2 % ID/g
Drug uptake (Heart [13]): 0.28 % ID/g
Drug uptake (Muscle tissue [14]): 0.24 % ID/g
Drug uptake (Brain [15]): 0.1 % ID/g
Drug uptake [16]: 0.57 % ID/g
Drug uptake (Heart [17]): 0.3 % ID/g
Drug uptake (Testes [18]): 0.14 % ID/g
Drug uptake (Pancreas [19]): 2.77 % ID/g
Drug uptake (Blood [20]): 0.14 % ID/g
Drug uptake (Bone [21]): 0.17 % ID/g
Drug uptake [22]: 0.98 % ID/g
Drug uptake (Liver [23]): 0.63 % ID/g
Drug uptake (Liver [24]): 0.93 % ID/g
Drug uptake (Pancreas [25]): 2.65 % ID/g
Drug uptake (Kidney [26]): 4.87 % ID/g
Drug uptake (Spleen [27]): 0.3 % ID/g
Drug uptake (Liver [28]): 0.4 % ID/g
Drug uptake (Blood [29]): 0.48 % ID/g
Drug uptake (Lung [30]): 0.8 % ID/g
Drug uptake (Bone [31]): 0.27 % ID/g
Drug uptake (Lung [32]): 1.13 % ID/g
Drug uptake (Lung [33]): 0.78 % ID/g
Drug uptake (Testes [34]): 0.23 % ID/g
Drug uptake (Muscle tissue [35]): 0.28 % ID/g
Drug uptake (Muscle tissue [36]): 0.17 % ID/g
Drug uptake (Heart [37]): 0.56 % ID/g
Drug uptake (Kidney [38]): 3.44 % ID/g
Drug uptake (Spleen [39]): 0.18 % ID/g
Drug uptake [40]: 1.68 % ID/g
Drug uptake (Bone [41]): 0.14 % ID/g
Ratio [42]: 13
Drug uptake (Lung [43]): 1.53 % ID/g
Drug uptake (Brain [44]): 0.1 % ID/g
Drug uptake (Liver [45]): 0.41 % ID/g
Drug uptake (Spleen [46]): 0.48 % ID/g
Drug uptake (Blood [47]): 0.21 % ID/g
Drug uptake (Brain [48]): 0.12 % ID/g
Drug uptake (Testes [49]): 0.18 % ID/g
Drug uptake (Testes [50]): 0.13 % ID/g
Drug uptake (Blood [51]): 0.29 % ID/g
Drug uptake (Pancreas [52]): 1.84 % ID/g
Compound: N[C@@]1(C(=O)O)CCC[C@@H]1[18F] (racemic)
